From the METLIN SMRT retention time set (Domingo-Almenara et al. 2019) come the findings set out here.

Molecules are shown by their SMILES.

The nature of the data set: gradient 5% acetonitrile 3 min, to 50% in 2 min, to 85% in 15 min, held 3 min, 100 µL/min. The following applies: column: Zorbax Extend-C18 2.1 x 50 mm; eluents: water / acetonitrile, 0.1% formic acid. A digest of the protocol: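 Pure standards were analyzed in mixtures of ~100 molecules using HPLC coupled to a quadrupole time-of-flight mass spectrometer, in both positive and negative ionization mode. Separation used a Zorbax Extend-C18 column (2.1 × 50 mm, 1.8 μm) at 100 μL/min, with water and acetonitrile each containing 0.1% formic acid. Dead and dwell volumes were 40 μL and 900 μL, and data were collected over 3 months. Retention time was read from computationally picked adduct peaks, each inspected manually.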
Consider `O=C(Cc1cccs1)N1CCc2c([nH]c3ccccc23)C1c1ccc(Cl)cc1` (centres undefined), for which the RP-LC retention time turned out to be 1220 s.
For the compound `Nc1cc(C2CCN(C(=O)c3ccc(Cl)cc3)CC2)no1`, the RP-LC retention time worked out at 705 s.
Take `CCCNC(=O)N1[C@H]2CC[C@@H]1c1cnc(-c3ccccc3)nc1C2`: the RP-LC retention time was 790 s.
Next, `CCC(Oc1ccc(=O)n(-c2ccc(F)cc2)n1)C(=O)NCc1ccc2c(c1)OCO2` (centres undefined): 752 s; `Brc1cn2c(Nc3ccc4c(c3)OCCO4)c(-c3ccccc3)nc2cn1`: 916 s.
With `Cc1noc([C@@H]2CN(Cc3c(F)cccc3Cl)C[C@H]2CO)n1`, the RP-LC retention time came out at 605 s.
Under `O=C(Cc1cccs1)N1CCN(C(=O)c2cc3cc(Br)ccc3[nH]2)CC1` stands 866 s; under `CN1C(=O)c2cccn2CC1C(=O)Nc1ccc(F)cc1` (centres undefined), 677 s.
Under `COc1ccccc1NC(=O)Cn1c(C)nc2onc(C)c2c1=O` stands 772 s; under `Cc1nncn1C1CCN(S(=O)(=O)c2ccc(CC(C)C)cc2)CC1`, 822 s.
Next, `COc1ccc(NC(=O)N2CC=C(c3cn(C(C)C)c4ncccc34)CC2)cc1`: 858 s; `CCOc1ccc(NC(=O)N2CCC(n3cnc4ccc(Cl)cc4c3=O)CC2)cc1`: 844 s; `COc1ccccc1C(=O)Nc1nc(-c2ccc3c(c2)N(C)C(=O)CO3)cs1`: 969 s.
Take `O=C(Nc1ccc(N2CCOCC2)cc1)c1cc(C2CC2)n2nccc2n1`: the RP-LC retention time stood at 846 s.
`CCN1C(=O)C2(CCN(C(=O)NC3CCCCC3)CC2)c2ccccc21` displayed an RP-LC retention time of 867 s.
Next, `c1ccc2c(CCNc3ccc(Nc4ccncc4)cc3)c[nH]c2c1`: 1110 s; `COc1ccc(C(=O)NC(CC(C)C)C(=O)Nc2nc3ccccc3[nH]2)cc1` (centres undefined): 725 s.
On to `CCOC(=O)Cc1ccc(NC(=O)NC2CCN(c3cc(C)cc(C)c3)C2=O)cc1` (centres undefined), for which the RP-LC retention time was 888 s.
The compound `CCCS(=O)(=O)N1CC(=O)N(c2cccc(Cl)c2C)C(C)(C(=O)NC2CCCC2)C1` (centres undefined) yielded an RP-LC retention time of 946 s.
Next, `Cc1ccc([C@@H]2O[C@H](CO)[C@@H](O)[C@H](O)[C@H]2O)cc1Cc1ccc(-c2ccc(F)cc2)s1`: 847 s; `COc1ncc(C(=O)N2CCCCC2)cn1`: 628 s; `O=c1oc2cc(O)c(O)cc2c2c1CCC2`: 641 s.
Under `O=c1c2cc(-c3ccc(F)cc3)nn2cnn1Cc1nc(-c2ccc(F)cc2)no1` stands 1100 s; under `O=C1COc2ccc(S(=O)(=O)N3CCC(C(=O)Nc4ccc(OC(F)(F)F)cc4)CC3)cc2N1`, 909 s.
Next, `CC(C)n1c(=O)sc2cc(S(=O)(=O)N3CCC(C(=O)NCc4ccccn4)CC3)ccc21`: 660 s; `CC1CCc2onc(C(=O)N(CCC#N)c3ccccc3)c2C1` (centres undefined): 945 s; `COc1ccc(-c2c(C)nn3c(N4CCN(c5ccccn5)CC4)cc(C)nc23)cc1OC`: 600 s.
In the case of `CCOc1cc(C(=O)Nc2cc(-c3cn4cccnc4n3)ccc2OC)cc(OCC)c1OCC`, the RP-LC retention time worked out at 831 s.
As for `O=C(CCNc1c(-c2cccc(F)c2)nc2cnccn12)NCc1ccc(F)cc1`, the RP-LC retention time was 755 s.
As for `CCOc1ccc(-c2ccc(=O)n(Cc3nc(-c4cccc(OC)c4)no3)n2)cc1`, the RP-LC retention time was 949 s.
Next, `Cc1c(-c2noc(-c3ccc4cc[nH]c4c3)n2)nnn1Cc1cccc(F)c1`: 996 s; `CCn1ncn2cc(S(=O)(=O)Nc3ccc(C)cc3C)cc2c1=O`: 937 s; `Cc1ccc(S(=O)(=O)CCc2noc(C(=O)N3CCC4(CC3)OCCO4)n2)cc1`: 816 s.
Under `O=C(Cc1cccs1)N1CCN(S(=O)(=O)c2cc(-c3noc(C4CCC4)n3)cs2)CC1` stands 1010 s.
Under `N#Cc1cccc(NC(=O)N2CCCC2c2nc(-c3ccc(F)cc3F)no2)c1` (centres undefined) stands 930 s; under `CCc1cc(Br)ccc1NC(=O)C1CCCN(c2nc3ccccc3nc2OC)C1` (centres undefined), 1300 s; under `COc1ccc(OC)c(C(O)Cn2ccn3nc(-c4ccc(C(C)C)cc4)cc3c2=O)c1` (centres undefined), 1090 s.
`COc1cccc(-c2noc(Cn3c(=O)n(Cc4ccccc4)c(=O)c4sccc43)n2)c1` gave an RP-LC retention time of 911 s.
In the case of `Cc1n[nH]c(C)c1S(=O)(=O)N1CCC(c2nnc(C3CC3)s2)CC1`, the RP-LC retention time was found to be 623 s.
With `N#Cc1cccc(CN2CCC3(CCC3O)CC2)c1` (centres undefined), the RP-LC retention time amounted to 565 s.
Next, `COc1ccc(NC(=O)Cc2csc3nc(-c4cccc(Br)c4)cn23)cc1OC`: 882 s; `CN1c2cc(C(=O)NCc3ccccc3Br)ccc2C(=O)N2CCCCC21` (centres undefined): 860 s.
Next, `CCCC(=O)Nc1ccc2c(c1)CN(C(=O)c1cc(F)ccc1Cl)C(C(=O)N(C)C)C2` (centres undefined): 726 s.
`O=C(Cc1ccc(Cl)cc1)NC1CCN(c2cc(-c3cccs3)[nH]n2)C1` (centres undefined) came in with an RP-LC retention time of 749 s.
`COc1cccc(CC(=O)N2CCC3(CC2)NC(=O)c2cc(F)ccc2N3C)c1`: the RP-LC retention time came out at 758 s.
Under `COC(=O)c1ccccc1NC(=O)Cn1c(-c2nonc2N)nc2ccccc21` stands 993 s; under `COc1ccccc1NC(=O)C1CCN(C(=O)C2Sc3ccccc3NC2=O)CC1` (centres undefined), 753 s.
On to `CC(C)Cc1csc(-c2csc(S(=O)(=O)NCc3ccccc3Cl)c2)n1`, for which the RP-LC retention time was 1330 s.
As for `COc1cccc(CNC(=O)c2c(C)sc3ccn(CC(C)C)c(=O)c23)c1`, the RP-LC retention time was 960 s.
Under `Cc1nn(-c2cc(N3CCCC3)ncn2)c(C)c1CCC(=O)NCc1ccco1` stands 686 s.
Under `Cc1ccccc1Oc1nccn2c(=O)n(CC(=O)Nc3ccccc3F)nc12` stands 853 s.
`COc1ccc(NC(=O)C2CCN(c3cc(N4CCCCC4)ncn3)CC2)c(OC)c1` had an RP-LC retention time of 694 s.
Next, `COc1ccc(CC(=O)Nc2nnc(-c3ccsc3)o2)cc1OC`: 655 s; `CCOC(=O)c1ccccc1NC(=O)Cn1nc2c(Sc3ccccc3)nccn2c1=O`: 1060 s.
Under `Cn1c(=O)c2nc(SCCC(=O)Nc3ccc(Br)cc3)n(C)c2n(C)c1=O` stands 757 s.
Next, `O=C(CN1CCN(Cc2cccc(Cl)c2)C1=O)NCC1CCCCC1`: 920 s.
As for `NS(=O)(=O)c1ccc(NC(=O)C2CCCN(c3ncnc4c3nc3n4CCCCC3)C2)cc1` (centres undefined), the RP-LC retention time was found to be 659 s.
Take `O=C(Nc1ccc(Br)cc1)N(c1ccccc1)c1ccccc1`: the RP-LC retention time amounted to 1040 s.
Consider `Cc1ccc(-n2c(=O)c3c(cc(C)n3C)n(CC(=O)Nc3ccc(F)cc3)c2=O)cc1`, for which the RP-LC retention time is 800 s.
Next, `Cn1ncc2c(N3CCSCC3)nc(C(=O)N3CCN(c4ccc(F)cc4)CC3)nc21`: 841 s; `CCc1cccc(NC(=O)N2CCCC2c2nc(-c3ccc(OC)cc3)no2)c1` (centres undefined): 925 s; `O=C(NCc1ccco1)c1ccc2c(c1)C(=O)c1ccccc1-2`: 749 s.
Under `CN1C(=O)C(C)(C(=O)Nc2ccc(F)cc2)Oc2cccnc21` (centres undefined) stands 847 s; under `COc1ccccc1NC(=O)Nc1c(-c2ccc(C)cc2)nc2ccccn12`, 700 s.
`O=C(Nc1ccccc1)N1CCC(Oc2ccccc2)C1` (centres undefined) showed an RP-LC retention time of 872 s.
The compound `CCn1c(=O)c(C(=O)Nc2cccc(SC)c2)c(O)c2sccc21` returned an RP-LC retention time of 1290 s.
In the case of `NC(=O)Cn1c(CCc2ccccc2)nc2ccccc21`, the RP-LC retention time came out at 581 s.
Next, `Cc1cccc(CN2CC(N(C3CCOCC3)S(C)(=O)=O)C2)c1`: 621 s; `CCC1CCCCN1C(=O)c1cnc2nc(C)ccc2c1Nc1ccc2c(c1)OCCO2` (centres undefined): 666 s.
Next, `Brc1cncc(-c2nc(-c3cccc(-c4ccn[nH]4)c3)no2)c1`: 954 s; `COCc1cn(CC2CCCN(Cc3cn(C)c4ccc(OC)cc34)C2)nn1` (centres undefined): 600 s; `CC(C)(C)NC(=O)N1CCC2(CC1)CC(Cc1nc(-c3cnccn3)no1)CCO2` (centres undefined): 720 s.
As for `O=C(CN1C(=O)N/C(=C\c2ccc(Cl)cc2)C1=O)Nc1ccc(Cl)cc1`, the RP-LC retention time is 899 s.
Next, `CCOc1ccc(-c2ccc(=O)n(Cc3nc(-c4ccccc4)no3)n2)cc1`: 1040 s.
As for `COCCC1CCN(C(=O)c2nccc3ccccc23)CC1`, the RP-LC retention time amounted to 719 s.
Under `O=C(Nc1ccc2c(c1)CN(S(=O)(=O)c1ccc3c(c1)CCC3)CCO2)C1CC1` stands 932 s; under `CCOC(=O)c1cc(C)nc2c1c(=O)n(Cc1cccc(C)c1)c(=O)n2C`, 1130 s; under `CSc1cccc(NC(=O)N2CCCC2c2nc(-c3cccc(C)c3)no2)c1` (centres undefined), 1080 s.
The compound `O=C(NCC(=O)N1CCCc2ccccc21)c1ccoc1` had an RP-LC retention time of 708 s.
